Source: US20250352498A1, “PHARMACEUTICAL FORMULATIONS CONTAINING PHENYLBUTYRATE AND METHODS THEREOF” (AARDVARK THERAPEUTICS INC., priority 2024, published 2025)

solubility in hydrophilic solvent (hydrophilic solvent): highly soluble | solubility in hydrophobic excipients (hydrophobic excipients): poorly soluble | water solubility (water): freely water soluble
Substance: sodium phenylbutyrate
